Columns and labels:
[1] = target: T1, Muscarinic acetylcholine receptor M2 (Homo sapiens) (UniProt P08172); assay: Inhibition of muscarinic M2 receptor at 10 uM
T1 sequence (whole entry): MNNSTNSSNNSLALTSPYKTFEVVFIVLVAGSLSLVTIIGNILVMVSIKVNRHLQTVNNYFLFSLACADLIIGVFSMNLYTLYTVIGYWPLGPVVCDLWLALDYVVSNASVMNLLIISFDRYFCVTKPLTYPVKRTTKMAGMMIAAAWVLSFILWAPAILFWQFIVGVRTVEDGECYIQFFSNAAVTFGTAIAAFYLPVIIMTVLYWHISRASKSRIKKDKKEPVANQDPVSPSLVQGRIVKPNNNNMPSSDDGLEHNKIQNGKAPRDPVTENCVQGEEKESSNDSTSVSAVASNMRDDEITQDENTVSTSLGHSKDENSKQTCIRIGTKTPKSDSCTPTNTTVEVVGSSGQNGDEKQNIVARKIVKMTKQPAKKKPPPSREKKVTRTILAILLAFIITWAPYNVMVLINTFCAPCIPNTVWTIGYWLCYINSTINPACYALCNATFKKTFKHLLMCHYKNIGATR

[2] = target: Sigma non-opioid intracellular receptor 1 (Rattus norvegicus, UniProt Q9R0C9); assay: Displacement of (+)-[3H]pentazocine from sigma 1 receptor in rat PC12 cells; format: cell-based, PC-12
D(3) dopamine receptor = D(3) dopamine receptor (Homo sapiens, UniProt P35462); assay: Inhibition of dopamine D3 receptor
[3] = target: T2, Muscarinic acetylcholine receptor M5 (Homo sapiens) (UniProt P08912); assay: Inhibition of muscarinic M5 receptor at 10 uM
T2 sequence (whole entry): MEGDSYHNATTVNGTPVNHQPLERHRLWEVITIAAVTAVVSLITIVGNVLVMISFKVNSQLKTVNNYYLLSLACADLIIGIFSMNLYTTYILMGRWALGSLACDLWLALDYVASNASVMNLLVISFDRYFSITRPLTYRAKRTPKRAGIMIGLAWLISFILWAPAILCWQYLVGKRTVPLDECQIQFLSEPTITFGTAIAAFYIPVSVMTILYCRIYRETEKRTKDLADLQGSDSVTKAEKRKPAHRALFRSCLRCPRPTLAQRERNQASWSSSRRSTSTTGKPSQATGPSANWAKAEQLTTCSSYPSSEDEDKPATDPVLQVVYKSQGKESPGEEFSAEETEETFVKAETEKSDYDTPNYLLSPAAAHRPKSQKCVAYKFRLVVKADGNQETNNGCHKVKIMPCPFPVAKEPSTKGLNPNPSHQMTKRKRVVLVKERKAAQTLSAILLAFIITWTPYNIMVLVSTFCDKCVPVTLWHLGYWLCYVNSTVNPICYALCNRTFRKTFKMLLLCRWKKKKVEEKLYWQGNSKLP

[4] = target: Sodium-dependent dopamine transporter (Homo sapiens, UniProt Q01959); assay: Displacement of [3H]WIN-35428 form human DAT expressed in HEK cell membranes; design: species or system HEK293
[5] = target: T3, 5-hydroxytryptamine receptor 1A (Homo sapiens) (UniProt P08908); assay: Inhibition of 5HT1A receptor at 10 uM
T3 sequence (whole entry): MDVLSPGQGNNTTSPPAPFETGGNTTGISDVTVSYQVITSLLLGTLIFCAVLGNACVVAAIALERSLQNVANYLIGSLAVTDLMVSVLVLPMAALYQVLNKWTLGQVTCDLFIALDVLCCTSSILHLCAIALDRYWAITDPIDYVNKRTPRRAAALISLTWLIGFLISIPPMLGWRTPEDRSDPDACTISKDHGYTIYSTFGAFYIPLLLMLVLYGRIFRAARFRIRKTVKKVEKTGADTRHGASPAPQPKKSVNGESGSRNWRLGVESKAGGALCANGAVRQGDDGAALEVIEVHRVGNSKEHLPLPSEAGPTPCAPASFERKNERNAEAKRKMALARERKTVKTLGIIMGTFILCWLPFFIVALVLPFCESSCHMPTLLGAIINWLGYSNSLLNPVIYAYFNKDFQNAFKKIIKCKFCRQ

[6] = target: T4, Alpha-1A adrenergic receptor (Homo sapiens) (UniProt P35348); assay: Inhibition of alpha1A adrenergic receptor at 10 uM
T4 sequence (whole entry): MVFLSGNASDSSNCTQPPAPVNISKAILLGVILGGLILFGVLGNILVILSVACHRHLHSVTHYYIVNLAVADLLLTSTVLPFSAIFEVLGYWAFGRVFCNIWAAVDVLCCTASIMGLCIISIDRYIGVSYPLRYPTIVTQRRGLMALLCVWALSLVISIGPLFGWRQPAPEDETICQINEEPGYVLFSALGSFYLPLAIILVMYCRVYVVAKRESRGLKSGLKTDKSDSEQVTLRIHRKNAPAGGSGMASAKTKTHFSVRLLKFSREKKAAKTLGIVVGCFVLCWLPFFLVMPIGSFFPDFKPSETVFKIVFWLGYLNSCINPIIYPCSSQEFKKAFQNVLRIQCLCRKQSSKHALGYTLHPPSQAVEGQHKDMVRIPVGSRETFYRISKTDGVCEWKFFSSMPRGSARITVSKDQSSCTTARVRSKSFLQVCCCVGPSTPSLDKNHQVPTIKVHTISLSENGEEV

[7] = target: T5, Alpha-1D adrenergic receptor (Homo sapiens) (UniProt P25100); assay: Inhibition of Alpha-1D adrenergic receptor at 10 uM
T5 sequence (whole entry): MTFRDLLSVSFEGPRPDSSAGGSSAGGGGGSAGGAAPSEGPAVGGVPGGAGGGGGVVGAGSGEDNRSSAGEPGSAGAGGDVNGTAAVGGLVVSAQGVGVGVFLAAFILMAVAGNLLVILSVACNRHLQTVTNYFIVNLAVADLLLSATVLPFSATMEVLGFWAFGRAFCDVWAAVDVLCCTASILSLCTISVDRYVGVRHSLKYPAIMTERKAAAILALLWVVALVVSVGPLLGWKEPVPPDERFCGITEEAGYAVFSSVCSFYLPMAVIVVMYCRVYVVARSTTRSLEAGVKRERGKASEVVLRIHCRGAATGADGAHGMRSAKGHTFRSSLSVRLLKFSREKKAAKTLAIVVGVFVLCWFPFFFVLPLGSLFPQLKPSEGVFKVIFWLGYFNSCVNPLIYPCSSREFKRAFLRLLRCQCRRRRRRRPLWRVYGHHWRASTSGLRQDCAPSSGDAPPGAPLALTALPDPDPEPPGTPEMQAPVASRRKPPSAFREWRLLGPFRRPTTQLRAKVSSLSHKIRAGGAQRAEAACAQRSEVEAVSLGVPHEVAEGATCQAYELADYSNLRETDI

[8] = target: Sodium-dependent serotonin transporter (Homo sapiens, UniProt P31645); assay: Displacement of [3H]citalopram from human SERT expressed in HEK cells; format: cell-based, HEK293; conditions: for inhibition: HEK293, concentration not given here
[9] = target: Beta-3 adrenergic receptor (Homo sapiens) (UniProt P13945); assay: Inhibition of beta3 adrenergic receptor at 10 uM
[10] = target: Kappa-type opioid receptor (Homo sapiens) (UniProt P41145); assay: Inhibition of kappa opioid receptor at 10 uM
Chain of Kappa-type opioid receptor (Homo sapiens) (P41145 whole entry): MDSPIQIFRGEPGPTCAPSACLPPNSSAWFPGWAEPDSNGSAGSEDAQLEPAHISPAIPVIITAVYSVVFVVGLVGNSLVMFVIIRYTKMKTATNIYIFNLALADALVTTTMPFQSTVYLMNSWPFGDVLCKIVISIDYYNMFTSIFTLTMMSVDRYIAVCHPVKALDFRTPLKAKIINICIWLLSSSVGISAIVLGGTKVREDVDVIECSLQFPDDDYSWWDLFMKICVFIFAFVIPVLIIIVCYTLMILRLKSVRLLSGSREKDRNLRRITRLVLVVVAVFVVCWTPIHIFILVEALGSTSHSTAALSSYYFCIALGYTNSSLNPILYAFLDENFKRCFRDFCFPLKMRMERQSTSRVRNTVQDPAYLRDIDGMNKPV

Chain of D(3) dopamine receptor (P35462 whole entry): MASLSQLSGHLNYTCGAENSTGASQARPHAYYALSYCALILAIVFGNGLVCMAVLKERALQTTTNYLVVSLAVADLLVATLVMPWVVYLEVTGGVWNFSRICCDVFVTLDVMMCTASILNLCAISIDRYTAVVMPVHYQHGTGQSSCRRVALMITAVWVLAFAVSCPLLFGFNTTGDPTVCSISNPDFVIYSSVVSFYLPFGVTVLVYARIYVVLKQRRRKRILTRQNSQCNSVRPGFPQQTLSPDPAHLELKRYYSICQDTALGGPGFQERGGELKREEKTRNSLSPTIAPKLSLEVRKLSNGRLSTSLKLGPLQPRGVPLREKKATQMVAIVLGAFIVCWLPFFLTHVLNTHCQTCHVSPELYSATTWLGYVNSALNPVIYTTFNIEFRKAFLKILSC
Chain of Sodium-dependent dopamine transporter (Q01959 whole entry): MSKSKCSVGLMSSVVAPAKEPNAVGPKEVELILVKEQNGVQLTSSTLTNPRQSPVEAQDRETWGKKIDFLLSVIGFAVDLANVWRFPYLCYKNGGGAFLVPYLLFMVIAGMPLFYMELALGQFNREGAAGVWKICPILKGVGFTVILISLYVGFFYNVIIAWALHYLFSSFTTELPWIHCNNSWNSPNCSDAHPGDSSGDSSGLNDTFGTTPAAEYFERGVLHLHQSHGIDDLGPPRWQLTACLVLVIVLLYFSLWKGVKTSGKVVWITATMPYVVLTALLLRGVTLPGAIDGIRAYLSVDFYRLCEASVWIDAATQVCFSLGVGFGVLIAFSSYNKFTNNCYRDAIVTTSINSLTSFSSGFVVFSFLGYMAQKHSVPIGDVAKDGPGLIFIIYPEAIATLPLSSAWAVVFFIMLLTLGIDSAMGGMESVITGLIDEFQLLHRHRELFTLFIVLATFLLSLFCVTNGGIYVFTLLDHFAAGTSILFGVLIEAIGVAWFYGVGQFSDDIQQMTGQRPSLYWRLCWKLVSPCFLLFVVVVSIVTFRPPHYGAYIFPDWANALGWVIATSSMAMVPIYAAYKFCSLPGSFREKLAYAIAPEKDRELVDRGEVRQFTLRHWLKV
Chain of Beta-3 adrenergic receptor (Homo sapiens) (P13945 whole entry, looked up): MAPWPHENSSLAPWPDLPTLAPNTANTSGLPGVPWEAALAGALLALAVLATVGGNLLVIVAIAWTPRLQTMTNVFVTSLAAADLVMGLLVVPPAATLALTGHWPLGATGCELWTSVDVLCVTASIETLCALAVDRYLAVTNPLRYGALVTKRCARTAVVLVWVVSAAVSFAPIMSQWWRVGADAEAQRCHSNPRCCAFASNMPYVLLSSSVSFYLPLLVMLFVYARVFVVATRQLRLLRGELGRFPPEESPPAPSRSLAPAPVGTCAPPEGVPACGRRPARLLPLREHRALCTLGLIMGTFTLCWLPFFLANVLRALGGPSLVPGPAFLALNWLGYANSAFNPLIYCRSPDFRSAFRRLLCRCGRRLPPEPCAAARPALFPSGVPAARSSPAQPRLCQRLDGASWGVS
Chain of Sigma non-opioid intracellular receptor 1 (Q9R0C9 whole entry): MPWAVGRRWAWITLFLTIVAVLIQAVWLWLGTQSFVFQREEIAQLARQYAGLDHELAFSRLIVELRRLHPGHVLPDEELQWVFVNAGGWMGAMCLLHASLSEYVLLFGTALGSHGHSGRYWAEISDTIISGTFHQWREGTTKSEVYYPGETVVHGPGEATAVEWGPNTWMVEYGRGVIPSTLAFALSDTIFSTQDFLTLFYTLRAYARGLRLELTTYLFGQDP

## Fc1cccc(CN[C@H]2C3C4CC5C6C4CC3C6C52)c1 (stereo partly specified)
[1]
  inhibition: < 50%
[2]
  Ki: 0.198 µM
D(3) dopamine receptor
  Ki: 7.16 µM
[3]
  inhibition: < 50%
[4]
  Ki: 3.44 µM
[5]
  inhibition: < 50%
[6]
  inhibition: < 50%
[7]
  inhibition: < 50%
[8]
  Ki: > 10 µM
[9]
  inhibition: < 50%
[10]
  inhibition: < 50%

## Fc1cccc(CCN[C@H]2C3C4CC5C6C4CC3C6C52)c1 (stereo partly specified)
[2]
  Ki: 0.019 µM
D(3) dopamine receptor
  Ki: 5.21 µM
[4]
  Ki: 1.68 µM
[5]
  inhibition: < 50%
[6]
  inhibition: < 50%
[7]
  inhibition: < 50%
[8]
  Ki: > 10 µM
[9]
  inhibition: < 50%
[10]
  inhibition: < 50%

## CN(CCc1cccc(F)c1)[C@H]1C2C3CC4C5C3CC2C5C41 (stereo partly specified)
[1]
  inhibition: < 50%
[2]
  Ki: 1.16 µM
D(3) dopamine receptor
  Ki: > 10 µM
[3]
  inhibition: < 50%
[4]
  Ki: 0.101 µM
[5]
  inhibition: < 50%
[6]
  inhibition: < 50%
[7]
  inhibition: < 50%
[8]
  inhibition: < 50%
[9]
  inhibition: < 50%
[10]
  inhibition: < 50%

## CN(Cc1cccc(F)c1)[C@H]1C2C3CC4C5C3CC2C5C41 (stereo partly specified)
[1]
  inhibition: < 50%
[2]
  Ki: 1.57 µM
[3]
  inhibition: < 50%
[4]
  Ki: 0.0012 µM
[5]
  inhibition: < 50%
[6]
  inhibition: < 50%
[7]
  inhibition: < 50%
[8]
  inhibition: < 50%
[9]
  inhibition: < 50%
[10]
  inhibition: < 50%
